Read-outs that look alike come from different tables or passages of the source.
Experiments:
Assay in all cases: Microculture tetrazolium assay
Format in all cases: cell-based
SKOV3 = conditions: read-out: IC50
SKVLB = conditions: for VLB/OV3: IC50 ratio SKVLB/SKOV3; for IC50: SKVLB, read-out: IC50
T47D = conditions: read-out: IC50
LOX = conditions: read-out: IC50
HT29 = conditions: read-out: IC50

| Compound | IC50 (SKOV3; Homo sapiens, SK-OV-3, SKOV3) | VLB/OV3 (SKVLB) | IC50 (SKVLB) | IC50 (T47D; Homo sapiens) | IC50 (LOX) | IC50 (HT29; Homo sapiens, HT-29, HT29) | VLB/OV3 (SKVLB; listed as BCH1157) | IC50 (SKVLB; listed as BCH1157) | IC50 (SKOV3; SKOV3) | VLB/OV3 (SKVLB; listed as BCH1158) | IC50 (SKVLB; listed as BCH1158) | IC50 (T47D) | IC50 (HT29; HT29) |
| --- | --- | --- | --- | --- | --- | --- | --- | --- | --- | --- | --- | --- | --- |
| C[C@@H]1O[C@@H](O[C@@H]2O[C@@H](C(=O)COC(=O)C(C)(C)C)CC3=C2C(=O)c2cc4ccccc4c(O)c2C3=O)C[C@H](NC(=O)C(F)(F)F)[C@@H]1O [BCH-1137, (1'S,1S,3R)-1,2,3,4,5,12-hexahydro-6-hydroxy-3-trimethylacetoxyaceto-1-N-trifluoroacetyl-L-daunosamine-(2-oxo) naphthacene-5,12-dione] | 13.7 µM | 1.03 | 14.1 µM | 8.4 µM | 8.88 µM | 6.37 µM |  |  |  |  |  |  |  |
| COC(=O)C1CC2=C(CS1)C(=O)c1cc3ccccc3c(O)c1C2=O (stereo not drawn) [BCH-1149] | 30 µM | 1.38 | 41.5 µM | 38.5 µM | 25.3 µM | 29.7 µM |  |  |  |  |  |  |  |
| COC(=O)C1CC2=C(CS1)C(=O)c1c(cc3ccccc3c1O)C2=O (stereo not drawn) [BCH-1150] | 100 µM |  | 100 µM | 78.3 µM | 84.6 µM | 64.1 µM |  |  |  |  |  |  |  |
| CC(=O)C1CC2=C(CS1)C(=O)c1cc3ccccc3c(O)c1C2=O (stereo not drawn) [BCH-1151] | 53.3 µM | 1.41 | 75 µM | 62.5 µM | 30.5 µM | 58.9 µM |  |  |  |  |  |  |  |
| CC(=O)C1CC2=C(CS1)C(=O)c1c(cc3ccccc3c1O)C2=O (stereo not drawn) [BCH-1152] | 100 µM |  | 100 µM | 100 µM | 100 µM | 100 µM |  |  |  |  |  |  |  |
| C[C@@H]1O[C@@H](O[C@H]2O[C@H](C3(CO)OCCCO3)CC3=C2C(=O)c2cc4ccccc4c(O)c2C3=O)C[C@H](N)[C@@H]1O [BCH-1153] | 3.02 µM | 4.93 | 14.9 µM | 4.65 µM | 2.9 µM | 2.94 µM |  |  |  |  |  |  |  |
| C[C@@H]1O[C@@H](O[C@@H]2O[C@@H](C3(CO)OCCCO3)CC3=C2C(=O)c2cc4ccccc4c(O)c2C3=O)C[C@H](N)[C@@H]1O [BCH-1154] | 8.94 µM | 3.18 | 28.4 µM | 14.2 µM | 3.74 µM | 8.55 µM |  |  |  |  |  |  |  |
| C=C[C@H]1CC2=C(C(=O)c3cc4ccccc4c(O)c3C2=O)[C@H](O[C@H]2C[C@H](NC(=O)C(F)(F)F)[C@H](O)[C@H](C)O2)O1 [BCH-1155] | 6.25 µM | 1.12 | 7.01 µM | 8.5 µM | 3.97 µM | 8.8 µM |  |  |  |  |  |  |  |
| CC(=O)C1Cc2c(O)c3c(c(O)c2C(O[C@H]2C[C@H](N=[N+]=[N-])[C@H](I)[C@H](C)O2)O1)C(=O)c1ccccc1C3=O (stereo partly drawn) [BCH-1156] | 26.2 µM |  | 100 µM | 100 µM | 100 µM | 36.2 µM |  |  |  |  |  |  |  |
| CC(=O)C1CC2=C(C(=O)c3cc4ccccc4c(O)c3C2=O)C(OC2CC(N=[N+]=[N-])C(I)C(C)O2)O1 (stereo not drawn) [BCH-1157] | 14.7 µM |  |  | 37.6 µM | > 100 µM | 13 µM | 1.43 | 21 µM |  |  |  |  |  |
| CC(=O)C1CC2=C(C(=O)c3cc4ccccc4c(O)c3C2=O)C(OC2CC(N=[N+]=[N-])C(I)C(C)O2)O1 (stereo not drawn) [BCH-1158] |  |  |  |  | > 100 µM |  |  |  | 8.35 µM | 0.74 | 6.2 µM | 25.7 µM | 8.25 µM |
| CC(=O)O[C@@H]1[C@H](C)O[C@@H](O[C@H]2O[C@H](C(C)=O)CC3=C2C(=O)c2cc4ccccc4c(O)c2C3=O)C[C@@H]1OC(C)=O [BCH-1165, (1'S,1R,3S)-methyl-(6-hydroxy-1-(2',3',4',6'-tetradeoxy-3',4'-diacetyl-L-lyxohexopyranose)-5,12-dioxo-3,4,5,12-tetrahydroanthraceno-[2,3-c]pyran-3-yl) ketone] | 30.5 µM | 1.38 | 42.1 µM | 31.5 µM | 23.6 µM | 10 µM |  |  |  |  |  |  |  |
